Reference: ChEMBL document CHEMBL4396934, “Novel α,β-unsaturated hydroxamic acid derivatives overcome cisplatin resistance” (Bioorg Med Chem, 2019)

target: Histone deacetylase; assay: Inhibition of HDAC in human A2780 cells using Boc-Lys(epsilon-Ac)-AMC as substrate preincubated for 18 hrs followed by substrate addition and further incubation for 3 hrs by microplate reader based fluorescence assay; type: cell-based; settings: not given

| IC50 | Structure (SMILES) |
| --- | --- |
| 1.92 µM | O=C(/C=C/c1ccc(CONC(=O)c2ccc3ccccc3c2)cc1)NO |
| 0.9 µM | Cc1cc(C)cc(C(=O)NOCc2ccc(/C=C/C(=O)NO)cc2)c1 |
| 3.34 µM | CC(C(=O)NOCc1ccc(/C=C/C(=O)NO)cc1)(c1ccccc1)c1ccccc1 |
| 6.85 µM | CCNC(=O)NOCc1ccc(/C=C/C(=O)NO)cc1 |
| 1.98 µM | O=C(/C=C/c1ccc(CONC(=O)c2nccc3ccccc23)cc1)NO |
| 43.2 µM | O=C(/C=C/c1ccc(CONC(=O)Nc2cccc3ccccc23)cc1)NO |
| 4.03 µM | O=C(/C=C/c1ccc(CONC(=O)Nc2ccccc2-c2ccccc2)cc1)NO |
| 2.29 µM | Cc1cc(C)c(NC(=O)NOCc2ccc(/C=C/C(=O)NO)cc2)c(C)c1 |

test system: CAL-27; assay: Antiproliferative activity against human CAL27 cells after 72 hrs by microplate reader based MTT assay; type: functional, cell-based; settings: CAL-27, 72 h

| Structure (SMILES) | IC50 |
| --- | --- |
| Cc1[nH]c2ccccc2c1CCNCc1ccc(/C=C/C(=O)NO)cc1 [PANOBINOSTAT] | 0.0109 µM |
| O=C(/C=C/c1ccc(CONC(=O)c2ccc3ccccc3c2)cc1)NO | 3.65 µM |
| Cc1cc(C)cc(C(=O)NOCc2ccc(/C=C/C(=O)NO)cc2)c1 | 2.24 µM |
| CC(C(=O)NOCc1ccc(/C=C/C(=O)NO)cc1)(c1ccccc1)c1ccccc1 | 5.71 µM |
| CCNC(=O)NOCc1ccc(/C=C/C(=O)NO)cc1 | 14 µM |
| O=C(/C=C/c1ccc(CONC(=O)c2nccc3ccccc23)cc1)NO | 4.21 µM |
| O=C(/C=C/c1ccc(CONC(=O)Nc2cccc3ccccc23)cc1)NO | 34.1 µM |
| O=C(/C=C/c1ccc(CONC(=O)Nc2ccccc2-c2ccccc2)cc1)NO | 2.62 µM |
| Cc1cc(C)c(NC(=O)NOCc2ccc(/C=C/C(=O)NO)cc2)c(C)c1 | 3.49 µM |

test system: A2780; assay: Antiproliferative activity against human A2780 cells after 72 hrs by microplate reader based MTT assay; type: functional, cell-based; settings: A2780, 72 h

| IC50 | Structure (SMILES) |
| --- | --- |
| 0.0548 µM | Cc1[nH]c2ccccc2c1CCNCc1ccc(/C=C/C(=O)NO)cc1 [PANOBINOSTAT] |
| 3.11 µM | O=C(/C=C/c1ccc(CONC(=O)c2ccc3ccccc3c2)cc1)NO |
| 2.33 µM | Cc1cc(C)cc(C(=O)NOCc2ccc(/C=C/C(=O)NO)cc2)c1 |
| 4.55 µM | CC(C(=O)NOCc1ccc(/C=C/C(=O)NO)cc1)(c1ccccc1)c1ccccc1 |
| 35.4 µM | CCNC(=O)NOCc1ccc(/C=C/C(=O)NO)cc1 |
| 3.15 µM | O=C(/C=C/c1ccc(CONC(=O)c2nccc3ccccc23)cc1)NO |
| 38.9 µM | O=C(/C=C/c1ccc(CONC(=O)Nc2cccc3ccccc23)cc1)NO |
| 3.57 µM | O=C(/C=C/c1ccc(CONC(=O)Nc2ccccc2-c2ccccc2)cc1)NO |
| 3.39 µM | Cc1cc(C)c(NC(=O)NOCc2ccc(/C=C/C(=O)NO)cc2)c(C)c1 |

target: Histone deacetylase; assay: Inhibition of HDAC in human CAL27 cells using Boc-Lys(epsilon-Ac)-AMC as substrate preincubated for 18 hrs followed by substrate addition and further incubation for 3 hrs by microplate reader based fluorescence assay; type: cell-based; settings: not given

| IC50 | Structure (SMILES) |
| --- | --- |
| 2.83 µM | O=C(/C=C/c1ccc(CONC(=O)c2ccc3ccccc3c2)cc1)NO |
| 1.09 µM | Cc1cc(C)cc(C(=O)NOCc2ccc(/C=C/C(=O)NO)cc2)c1 |
| 4.81 µM | CC(C(=O)NOCc1ccc(/C=C/C(=O)NO)cc1)(c1ccccc1)c1ccccc1 |
| 14.2 µM | CCNC(=O)NOCc1ccc(/C=C/C(=O)NO)cc1 |
| 4.48 µM | O=C(/C=C/c1ccc(CONC(=O)c2nccc3ccccc23)cc1)NO |
| 40.3 µM | O=C(/C=C/c1ccc(CONC(=O)Nc2cccc3ccccc23)cc1)NO |
| 5.65 µM | O=C(/C=C/c1ccc(CONC(=O)Nc2ccccc2-c2ccccc2)cc1)NO |
| 4.21 µM | Cc1cc(C)c(NC(=O)NOCc2ccc(/C=C/C(=O)NO)cc2)c(C)c1 |
